Patent publication US20210060058A1, “COMPOSITIONS AND METHODS FOR TREATING HYDROGEN SULFIDE-MEDIATED HYPERDYNAMIC CIRCULATION” (priority 2019, published 2021)
Read-outs that look alike come from different tables or passages of the source.

Legend:
rats = assay: Portal vein flow during 20-minute jejunal NaHS infusion in rats fed MgO diet; format: in vivo, rat
Source text: FIG. 7. Portal venous flow recordings over 20-minute infusion of NaHS in two groups: Standard-diet-fed rats and Magnesium Oxide (MgO)-fed rats. Vehicle group shown as control; standard diet fed rats followed by water infusion. All measurements shown as percent change from baseline to accommodate for compensate for variation in baseline data; data shown as percent change±SEM. Baseline flow measurements recorded and average (shown as time 0) for each group. […] No difference is noted between MgO diet group and vehicle.
Rats were divided into three groups: Magnsium Oxide (MgO) diet, 500 mg MgO per 100 g chow, with NaHS infusion into small intestine (jejunim); standard diet with NaHS infusion into jejunum; and standard diet with control (vehicle) infusion into jejunim. Diets were administered for three days total. At the end of diet treatment, rats underwent surgery to measure porta vein flow before and after infusion of small intestine (jejunum) sodium hydrosulfide (NaHS), a hydrogen sulfide donor. Portal vein blood flow was recorded at baseline for 10 minutes and throughout 20-minute infusion periods. Data reported as percent change from baseline; infusion started at minute 1 of data shown. Blood flow data are reported as mean percent baseline change+/−SEM and were compared by 2-way RM-ANOVA.

[1] = tested on: Desulfovibrio vulgaris (DSV); assay: Production of hydrogen sulfide gas by DSV in the culture system; format: cell-based; conditions: molybdate at 10 μM, 50 μM, and 1 mM; dose dependent
Source text: FIG. 9. Effect of molybdate on the production of hydrogen sulfide gas measured in parts per billion (ppb) in the culture system.

[2] = tested on: Desulfovibrio vulgaris (DSV); conditions: 14 hours
Source text: FIG. 8. Effect of molybdate on growth of Desulfovibrio vulgaris (DSV) on a culture plate.

Row | SMILES | Portal venous flow (percent change from baseline), MgO diet group versus vehicle (rats; 500 mg MgO per 100 g chow for three days, 20-minute NaHS infusion, vehicle = standard diet, water infusion) | Portal vein blood flow, MgO diet group versus other two groups (rats; at minutes 20 of infusion) | Generation of H2S gas by DSV (ppb) [1] | Growth of DSV ([2]; molybdate at 10 μM, 50 μM, and 1 mM, dose-dependent) | Growth of DSV ([2]; molybdate at 1 mM)
1 | [O]=[Mg] [MgO, Magnesium Oxide] | No difference | Statistical significant difference | – | – | –
2 | [O]=[Mo](=[O])([O-])[O-] [molybdate] | – | – | suppressed the generation of H2S gas | suppressed the growth | completely suppressing the growth
